From PubChem BioAssay AID2060899 (Molecular Pharmacology Branch, DTP, NCI, 2025)

Tested on: 565726-208-R1-J5-PDC complex spheroids, growth inhibition
Experiment: Anticancer human tumor 565726-208-R1-J5-PDC patient-derived pancreatic adenocarcinoma cell line growth inhibition [RAS]
Conditions: for IC50: curve of first compound; for viability, T/C: stronger effect = lower value
Method in brief: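 Multi-cell-type spheroids: tumor cells plus HUVEC endothelial cells and mesenchymal stem cells. RAS-pathway inhibitors were combined with targeted agents, each dosed in half-log steps down from clinical Cmax, or from 10 microM when Cmax was unknown.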

[1] = second compound 0.000949 µM, first compound 0.0316 µM
[2] = second compound 0.000949 µM, first compound 0.1 µM
[3] = second compound 0.000949 µM, first compound 0.316 µM
[4] = second compound 0.000949 µM, first compound 1 µM
[5] = second compound 0.000949 µM, first compound 3.16 µM
[6] = second compound 0.000949 µM, first compound 10 µM
[7] = second compound 0.003 µM, first compound 0.0316 µM
[8] = second compound 0.003 µM, first compound 0.1 µM
[9] = second compound 0.003 µM, first compound 0.316 µM
[10] = second compound 0.003 µM, first compound 1 µM
[11] = second compound 0.003 µM, first compound 3.16 µM
[12] = second compound 0.003 µM, first compound 10 µM
[13] = second compound 0.00949 µM, first compound 0.0316 µM
[14] = second compound 0.00949 µM, first compound 0.1 µM
[15] = second compound 0.00949 µM, first compound 0.316 µM
[16] = second compound 0.00949 µM, first compound 1 µM
[17] = second compound 0.00949 µM, first compound 3.16 µM
[18] = second compound 0.00949 µM, first compound 10 µM
[19] = second compound 0.03 µM, first compound 0.0316 µM
[20] = second compound 0.03 µM, first compound 0.1 µM
[21] = second compound 0.03 µM, first compound 0.316 µM
[22] = second compound 0.03 µM, first compound 1 µM
[23] = second compound 0.03 µM, first compound 3.16 µM
[24] = second compound 0.03 µM, first compound 10 µM
[25] = second compound 0.0949 µM, first compound 0.0316 µM
[26] = second compound 0.0949 µM, first compound 0.1 µM
[27] = second compound 0.0949 µM, first compound 0.316 µM
[28] = second compound 0.0949 µM, first compound 1 µM
[29] = second compound 0.0949 µM, first compound 3.16 µM
[30] = second compound 0.0949 µM, first compound 10 µM
[31] = second compound 0.3 µM, first compound 0.0316 µM
[32] = second compound 0.3 µM, first compound 0.1 µM
[33] = second compound 0.3 µM, first compound 0.316 µM
[34] = second compound 0.3 µM, first compound 1 µM
[35] = second compound 0.3 µM, first compound 3.16 µM
[36] = second compound 0.3 µM, first compound 10 µM
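Also: spheroids exposed to compounds for seven days before readout.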
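For viability, T/C in this document: 100% = DMSO vehicle control viability.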

`CC(Nc1ccc2c(c1)OCCn1cc(N3C(=O)OCC3C(F)F)nc1-2)C(N)=O` (centres undefined) + CCn1c(-c2cccnc2C(C)OC)c2c3cc(ccc31)N1CCOC(CC(NC(=O)C(C(C)C)N(C)C(=O)C3(F)CCN(C(=O)C#CC(C)(C)N(C)C)CC3)C(=O)N3CCCC(N3)C(=O)OCC(C)(C)C2)C1 gave an IC50 (second compound 0.000949 µM) of over 10 µM, an IC50 (second compound 0.003 µM) of over 10 µM and an IC50 (second compound 0.00949 µM) of 8.98 µM. For the same compound, the IC50 (second compound 0.03 µM) was 8.76 µM, the IC50 (second compound 0.0949 µM) was 7.05 µM and the IC50 (second compound 0.3 µM) was 2.39 µM. It also gave a viability, T/C [1] of 87.5%, a viability, T/C [2] of 80.8% and a viability, T/C [3] of 77.3%. It also gave a viability, T/C [4] of 72.8%, a viability, T/C [5] of 64.8% and a viability, T/C [6] of 50.7%. For the same compound, the viability, T/C [7] was 93.7%, the viability, T/C [8] was 88.4% and the viability, T/C [9] was 75%. It also gave a viability, T/C [10] of 75.9%, a viability, T/C [11] of 62.9% and a viability, T/C [12] of 52.9%. It also gave a viability, T/C [13] of 92.3%, a viability, T/C [14] of 91.2% and a viability, T/C [15] of 77.8%. For the same compound, the viability, T/C [16] was 77.6%, the viability, T/C [17] was 63.7% and the viability, T/C [18] was 47.7%. It also gave a viability, T/C [19] of 93%, a viability, T/C [20] of 85.6% and a viability, T/C [21] of 80.4%. The viability, T/C [22] was 71.1%, the viability, T/C [23] was 55.2% and the viability, T/C [24] was 49.9%. For the same compound, the viability, T/C [25] was 88.8%, the viability, T/C [26] was 82.4% and the viability, T/C [27] was 84.4%. For the same compound, the viability, T/C [28] was 65.9%, the viability, T/C [29] was 63% and the viability, T/C [30] was 44.8%. For the same compound, the viability, T/C [31] was 80%, the viability, T/C [32] was 72.8% and the viability, T/C [33] was 72%. For the same compound, the viability, T/C [34] was 63.7%, the viability, T/C [35] was 44.9% and the viability, T/C [36] was 38.2%.

`C[C@@H](NC(=O)c1ncnc(N)c1Cl)c1ncc(C(=O)Nc2cc(C(F)(F)F)c(Cl)cn2)s1` + CCn1c(-c2cccnc2C(C)OC)c2c3cc(ccc31)N1CCOC(CC(NC(=O)C(C(C)C)N(C)C(=O)C3(F)CCN(C(=O)C#CC(C)(C)N(C)C)CC3)C(=O)N3CCCC(N3)C(=O)OCC(C)(C)C2)C1 showed an IC50 (second compound 0.000949 µM) of over 10 µM, an IC50 (second compound 0.003 µM) of over 10 µM and an IC50 (second compound 0.00949 µM) of over 10 µM. It also gave an IC50 (second compound 0.03 µM) of over 10 µM, an IC50 (second compound 0.0949 µM) of over 10 µM and an IC50 (second compound 0.3 µM) of over 10 µM. It also gave a viability, T/C [1] of 111%, a viability, T/C [2] of 109% and a viability, T/C [3] of 113%. It also gave a viability, T/C [4] of 103%, a viability, T/C [5] of 98.1% and a viability, T/C [6] of 83.3%. The viability, T/C [7] was 118%, the viability, T/C [8] was 111% and the viability, T/C [9] was 107%. It also gave a viability, T/C [10] of 109%, a viability, T/C [11] of 98% and a viability, T/C [12] of 79.8%. For the same compound, the viability, T/C [13] was 108%, the viability, T/C [14] was 107% and the viability, T/C [15] was 104%. It also gave a viability, T/C [16] of 114%, a viability, T/C [17] of 105% and a viability, T/C [18] of 82.2%. For the same compound, the viability, T/C [19] was 102%, the viability, T/C [20] was 110% and the viability, T/C [21] was 112%. The viability, T/C [22] was 112%, the viability, T/C [23] was 105% and the viability, T/C [24] was 80.9%. It also gave a viability, T/C [25] of 108%, a viability, T/C [26] of 101% and a viability, T/C [27] of 99.7%. It also gave a viability, T/C [28] of 108%, a viability, T/C [29] of 90.1% and a viability, T/C [30] of 90.6%. It also gave a viability, T/C [31] of 91.3%, a viability, T/C [32] of 98.7% and a viability, T/C [33] of 95%. For the same compound, the viability, T/C [34] was 107%, the viability, T/C [35] was 90% and the viability, T/C [36] was 77.5%.
